Measured values taken from US8143288B2, “Inhibitors of HCV replication” (priority 2005, dated 2012).

system: HCV 1b-377-neo replicon cells; assay: HCV replicon FRET assay; type: cell-based; conditions: Hepatitis C virus, read-out: Activity (EC50)

| Structure (SMILES) | EC50 [nM] |
| --- | --- |
| CC(C)(C)OC(=O)Nc1ccccc1C(=O)N1CCC[C@H]1C(=O)Nc1ccc(/C=C/c2ccc(NC(=O)[C@@H]3CCCN3C(=O)c3ccccc3NC(=O)OC(C)(C)C)cc2)cc1 [Example 150] | 1000 to 10000 |

same assay, conditions: Hepatitis C virus; HCV replicon; read-out: Activity (EC50)

| Structure (SMILES) | EC50 [nM] |
| --- | --- |
| COc1ccc(Cl)cc1C(=O)N1CCC[C@H]1C(=O)Nc1ccc(/C=C/c2ccc(NC(=O)[C@@H]3CCCN3C(=O)c3cc(Cl)ccc3OC)cc2)cc1 [Example 138] | 1000 to 10000 |
| COc1ccc(C)cc1C(=O)N1CCC[C@H]1C(=O)Nc1ccc(/C=C/c2ccc(NC(=O)[C@@H]3CCCN3C(=O)c3cc(C)ccc3OC)cc2)cc1 [Example 139] | 100 to 1000 |
| CNc1ccccc1C(=O)N1CCC[C@H]1C(=O)Nc1ccc(/C=C/c2ccc(NC(=O)[C@@H]3CCCN3C(=O)c3ccccc3NC)cc2)cc1 [Example 140] | 100 to 1000 |
| O=C(Nc1ccc(/C=C/c2ccc(NC(=O)[C@@H]3CCCN3C(=O)c3ccccc3NCc3ccccc3)cc2)cc1)[C@@H]1CCCN1C(=O)c1ccccc1NCc1ccccc1 [Example 141] | 1000 to 10000 |
| COc1ccccc1C(=O)N1CCC[C@H]1C(=O)Nc1ccc(/C=C/c2ccc(NC(=O)[C@@H]3CCCN3C(=O)Cc3cccnc3)cc2)cc1 [Example 142] | 100 to 1000 |
| CCc1ccccc1C(=O)N1CCC[C@H]1C(=O)Nc1ccc(/C=C/c2ccc(NC(=O)[C@@H]3CCCN3C(=O)Cc3cccnc3)cc2)cc1 [Example 143] | 100 to 1000 |
| CN(C)c1ccccc1C(=O)N1CCC[C@H]1C(=O)Nc1ccc(/C=C/c2ccc(NC(=O)[C@@H]3CCCN3C(=O)c3ccccc3N(C)C)cc2)cc1 [Example 144] | 1000 to 10000 |
| COc1ccc(OC)c(C(=O)N2CCC[C@H]2C(=O)Nc2ccc(/C=C/c3ccc(NC(=O)[C@@H]4CCCN4C(=O)c4cc(OC)ccc4OC)cc3)cc2)c1 [Example 145] | 100 to 1000 |
| COc1cccc(C(=O)N2CCC[C@H]2C(=O)Nc2ccc(/C=C/c3ccc(NC(=O)[C@@H]4CCCN4C(=O)c4cccc(OC)c4OC)cc3)cc2)c1OC [Example 146] | 1000 to 10000 |
| O=C(Nc1ccc(/C=C/c2ccc(NC(=O)[C@@H]3CCCN3C(=O)c3ccccc3Oc3ccccc3)cc2)cc1)[C@@H]1CCCN1C(=O)c1ccccc1Oc1ccccc1 [Example 147] | 100 to 1000 |
| O=C(Nc1ccc(/C=C/c2ccc(NC(=O)[C@@H]3CCCN3C(=O)c3ccccc3OCc3ccccc3)cc2)cc1)[C@@H]1CCCN1C(=O)c1ccccc1OCc1ccccc1 [Example 148] | 1000 to 10000 |
| O=C(Nc1ccc(/C=C/c2ccc(NC(=O)[C@@H]3CCCN3C(=O)c3cccc4cc[nH]c34)cc2)cc1)[C@@H]1CCCN1C(=O)c1cccc2cc[nH]c12 [Example 149] | 100 to 1000 |
| O=C(Nc1ccc(/C=C/c2ccc(NC(=O)[C@@H]3CCCN3C(=O)c3ccccc3NCc3ccccc3)cc2)cc1)[C@@H]1CCCN1C(=O)Cc1cccnc1 [Example 151] | 100 to 1000 |
| O=C(Nc1ccc(/C=C/c2ccc(NC(=O)[C@@H]3CCCN3C(=O)c3ccccc3NCc3ccccc3)cc2)cc1)[C@@H]1CCCN1C(=O)CC1CC1 [Example 152] | 100 to 1000 |
| CC(=O)N1CCC[C@H]1C(=O)Nc1ccc(/C=C/c2ccc(NC(=O)[C@@H]3CCCN3C(=O)c3ccccc3NCc3ccccc3)cc2)cc1 [Example 153] | 1000 to 10000 |
| O=C(Nc1ccc(/C=C/c2ccc(NC(=O)[C@@H]3CCCN3C(=O)C3CC(=O)N(Cc4cccs4)C3)cc2)cc1)[C@@H]1CCCN1C(=O)C1CC(=O)N(Cc2cccs2)C1 (stereo partly drawn) [Example 154] | 1000 to 10000 |
| CCn1nc(C)cc1C(=O)N1CCC[C@H]1C(=O)Nc1ccc(/C=C/c2ccc(NC(=O)[C@@H]3CCCN3C(=O)c3cc(C)nn3CC)cc2)cc1 [Example 155] | 0.1 to 90 |
| O=C(Nc1ccc(/C=C/c2ccc(NC(=O)[C@@H]3CCCN3C(=O)C3CC(=O)N(CCc4cccs4)C3)cc2)cc1)[C@@H]1CCCN1C(=O)C1CC(=O)N(CCc2cccs2)C1 (stereo partly drawn) [Example 156] | 1000 to 10000 |
| CN1CCC[C@H]1C(=O)N1CCC[C@H]1C(=O)Nc1ccc(/C=C/c2ccc(NC(=O)[C@@H]3CCCN3C(=O)[C@@H]3CCCN3C)cc2)cc1 [Example 157] | 1000 to 10000 |
| CCOc1ccccc1C(=O)N1CCC[C@H]1C(=O)Nc1ccc(/C=C/c2ccc(NC(=O)[C@@H]3CCCN3C(=O)c3ccccc3OCC)cc2)cc1 [Example 158] | 1000 to 10000 |
| CCCOc1cccnc1C(=O)N1CCC[C@H]1C(=O)Nc1ccc(/C=C/c2ccc(NC(=O)[C@@H]3CCCN3C(=O)c3ncccc3OCCC)cc2)cc1 [Example 159] | 1000 to 10000 |
| CCOc1ncccc1C(=O)N1CCC[C@H]1C(=O)Nc1ccc(/C=C/c2ccc(NC(=O)[C@@H]3CCCN3C(=O)c3cccnc3OCC)cc2)cc1 [Example 160] | 1000 to 10000 |
| O=C(Nc1ccc(/C=C/c2ccc(NC(=O)[C@@H]3CCCN3C(=O)c3ccccc3NCc3ccccn3)cc2)cc1)[C@@H]1CCCN1C(=O)c1ccccc1NCc1ccccn1 [Example 161] | 1000 to 10000 |
| CN(Cc1ccccc1)c1ccccc1C(=O)N1CCC[C@H]1C(=O)Nc1ccc(/C=C/c2ccc(NC(=O)[C@@H]3CCCN3C(=O)c3ccccc3N(C)Cc3ccccc3)cc2)cc1 [Example 162] | 1000 to 10000 |
| O=C(Nc1ccc(/C=C/c2ccc(NC(=O)[C@@H]3CCCN3C(=O)c3cccc4ccccc34)cc2)cc1)[C@@H]1CCCN1C(=O)c1cccc2ccccc12 [Example 163] | 1000 to 10000 |

| Structure (SMILES) | EC50 [nM] |
| --- | --- |
| O=C(Nc1ccc(/C=C/c2ccc(NC(=O)[C@@H]3CCCN3C(=O)[C@@H]3CCCN3Cc3ccccc3)cc2)cc1)[C@@H]1CCCN1C(=O)[C@@H]1CCCN1Cc1ccccc1 [Example 164] | 1000 to 10000 |
| O=C(Nc1ccc(/C=C/c2ccc(NC(=O)[C@@H]3CCCN3C(=O)c3cccc4c3Cc3ccccc3-4)cc2)cc1)[C@@H]1CCCN1C(=O)c1cccc2c1Cc1ccccc1-2 [Example 165] | 1000 to 10000 |
| O=C(Nc1ccc(/C=C/c2ccc(NC(=O)[C@@H]3CCCN3C(=O)c3ccccc3-c3ccccc3)cc2)cc1)[C@@H]1CCCN1C(=O)c1ccccc1-c1ccccc1 [Example 166] | 1000 to 10000 |
| O=C(Nc1ccc(/C=C/c2ccc(NC(=O)[C@@H]3CCCN3C(=O)Cc3ccccc3OCc3ccccc3)cc2)cc1)[C@@H]1CCCN1C(=O)Cc1ccccc1OCc1ccccc1 [Example 167] | 1000 to 10000 |
| O=C(Nc1ccc(/C=C/c2ccc(NC(=O)[C@@H]3CCCN3C(=O)Cc3ccccc3Oc3ccccc3)cc2)cc1)[C@@H]1CCCN1C(=O)Cc1ccccc1Oc1ccccc1 [Example 168] | 1000 to 10000 |
| O=C(Nc1ccc(/C=C/c2ccc(NC(=O)[C@@H]3CCCN3C(=O)c3ccccc3CCc3ccccc3)cc2)cc1)[C@@H]1CCCN1C(=O)c1ccccc1CCc1ccccc1 [Example 169] | 100 to 1000 |
| O=C(Nc1ccc(/C=C/c2ccc(NC(=O)[C@@H]3CCCN3C(=O)c3ccccc3NCc3ccco3)cc2)cc1)[C@@H]1CCCN1C(=O)c1ccccc1NCc1ccco1 [Example 170] | 100 to 1000 |
| O=C(Nc1ccc(/C=C/c2ccc(NC(=O)[C@@H]3CCCN3C(=O)c3ccccc3Cc3ccccc3)cc2)cc1)[C@@H]1CCCN1C(=O)c1ccccc1Cc1ccccc1 [Example 171] | 100 to 1000 |
| O=C(Nc1ccc(/C=C/c2ccc(NC(=O)[C@@H]3CCCN3C(=O)c3ccccc3N3CCCCC3)cc2)cc1)[C@@H]1CCCN1C(=O)c1ccccc1N1CCCCC1 [Example 172] | 1000 to 10000 |
| CCOc1ccccc1CC(=O)N1CCC[C@H]1C(=O)Nc1ccc(/C=C/c2ccc(NC(=O)[C@@H]3CCCN3C(=O)Cc3ccccc3OCC)cc2)cc1 [Example 173] | 1000 to 10000 |
| O=C(c1ccccc1)c1cccnc1C(=O)N1CCC[C@H]1C(=O)Nc1ccc(/C=C/c2ccc(NC(=O)[C@@H]3CCCN3C(=O)c3ncccc3C(=O)c3ccccc3)cc2)cc1 [Example 174] | 100 to 1000 |
| CCCc1c(C(=O)N2CCC[C@H]2C(=O)Nc2ccc(/C=C/c3ccc(NC(=O)[C@@H]4CCCN4C(=O)c4cnn(-c5ccccc5)c4CCC)cc3)cc2)cnn1-c1ccccc1 [Example 175] | 1000 to 10000 |
| O=C(Nc1ccc(/C=C/c2ccc(NC(=O)[C@@H]3CCCN3C(=O)c3ccccn3)cc2)cc1)[C@@H]1CCCN1C(=O)c1ccccn1 [Example 176] | 1000 to 10000 |
| Cc1cccnc1C(=O)N1CCC[C@H]1C(=O)Nc1ccc(/C=C/c2ccc(NC(=O)[C@@H]3CCCN3C(=O)c3ncccc3C)cc2)cc1 [Example 177] | 1000 to 10000 |
| O=C(Nc1ccc(/C=C/c2ccc(NC(=O)[C@@H]3CCCN3C(=O)c3cnccn3)cc2)cc1)[C@@H]1CCCN1C(=O)c1cnccn1 [Example 178] | 1000 to 10000 |
| O=C(Nc1ccc(/C=C/c2ccc(NC(=O)[C@@H]3CCCN3C(=O)c3nccn3Cc3ccccc3)cc2)cc1)[C@@H]1CCCN1C(=O)c1nccn1Cc1ccccc1 [Example 179] | 1000 to 10000 |
| O=C(Nc1ccc(/C=C/c2ccc(NC(=O)[C@@H]3CCCN3C(=O)c3nc4ccccc4[nH]3)cc2)cc1)[C@@H]1CCCN1C(=O)c1nc2ccccc2[nH]1 [Example 180] | 1000 to 10000 |
| O=C(Nc1ccc(/C=C/c2ccc(NC(=O)[C@@H]3CCCN3C(=O)Cc3cccc4ccccc34)cc2)cc1)[C@@H]1CCCN1C(=O)Cc1cccc2ccccc12 [Example 181] | 100 to 1000 |
| O=C(Nc1ccc(/C=C/c2ccc(NC(=O)[C@@H]3CCCN3C(=O)c3ncccc3OCc3ccccc3)cc2)cc1)[C@@H]1CCCN1C(=O)c1ncccc1OCc1ccccc1 [Example 183] | 1000 to 10000 |
| O=C(Nc1ccc(/C=C/c2ccc(NC(=O)[C@@H]3CCCN3C(=O)c3ncoc3-c3ccccc3)cc2)cc1)[C@@H]1CCCN1C(=O)c1ncoc1-c1ccccc1 [Example 184] | 100 to 1000 |
| Cc1nc(-c2cccnc2)sc1C(=O)N1CCC[C@H]1C(=O)Nc1ccc(/C=C/c2ccc(NC(=O)[C@@H]3CCCN3C(=O)c3sc(-c4cccnc4)nc3C)cc2)cc1 [Example 185] | 1000 to 10000 |
| CC(C)c1sc(Cl)nc1C(=O)N1CCC[C@H]1C(=O)Nc1ccc(/C=C/c2ccc(NC(=O)[C@@H]3CCCN3C(=O)c3nc(Cl)sc3C(C)C)cc2)cc1 [Example 186] | 100 to 1000 |
| Cc1nc2ccccn2c1C(=O)N1CCC[C@H]1C(=O)Nc1ccc(/C=C/c2ccc(NC(=O)[C@@H]3CCCN3C(=O)c3c(C)nc4ccccn34)cc2)cc1 [Example 187] | 0.1 to 90 |
| CCc1ccnc(C(=O)N2CCC[C@H]2C(=O)Nc2ccc(/C=C/c3ccc(NC(=O)[C@@H]4CCCN4C(=O)c4cc(CC)ccn4)cc3)cc2)c1 [Example 188] | 100 to 1000 |
| COC(=O)N1c2ccccc2C[C@H]1C(=O)N1CCC[C@H]1C(=O)Nc1ccc(/C=C/c2ccc(NC(=O)[C@@H]3CCCN3C(=O)[C@@H]3Cc4ccccc4N3C(=O)OC)cc2)cc1 [Example 189] | 1000 to 10000 |
